# Test system: Zein
# Assay: Zein test (skin compatibility: nitrogen solubilised from zein by surfactant solution, micro-Kjeldahl)
# Set-up: species or system Mais
# Conditions: 20 %ig surfactant solution, pH 7; 40 ml with 2 g Zein, 1 Stunde, 35° C; lower Zein number = better skin compatibility
# Description: Zur Bestimmung der Hautfreundlichkeit der erfindungsgemäßen neuartigen Tenside wurde der Zein-Test durchgeführt. Als Testprodukt diente das Neutralisationsprodukt von Fettalkohol-C12-C14-ether-monoschwefelsäureester mit circa 2 Mol Ethylenoxid mit N-ß-Hydroxyethyl-N-methyl- glucamin (Produkt A). Als Vergleichssubstanzen dienten Nonylbenzolsulfonat (Na-Salz), Natriumlaurylsulfat und Natrium-Fettalkohol-C12-C14-ethersulfat mit 2-Ethylenoxidgruppen im Molekül.
# Die bei dem Zeintest erhaltene Zeinzahl gibt an, wieviel mg Stickstoff in 100 ml einer Tensidlösung enthalten sind, wenn diese 1 Stunde lang bei 35° C mit 2 g Zein versetzt wird. Je niedriger die Zeinzahl, um so besser ist die Hautverträglichieit des Produktes. Der Zein-Test wird in der nachfolgend beschriebenen Weise durchgeführt:
# 1. Ansetzen der Stammlösunsen:
# Die 1/20 n Natronlauge wird mit Benzoesäure (DAB 6) eingestellt. Dazu werden circa 40 bis 50 mg Benzoesäure in einen 100 ml Erlenmeyerkolben eingewogen. und in ungefähr 25 ml neutralisiertem Ethylalkohol gelöst. Zum Neutralisieren wird der Alkohol mit einigen Tropfen verdünnter Natronlauge gegen Phenolphthalein bis zur bleibenden Rosafärbung versetzt. Die gelöste Benzoesäure wird nun mit der 1/20 n Natronlauge bis zur bleibenden Rosafärbung titriert und der Faktor berechnet: [drawing 2]
# 1.2. Schwefelsäure 1/20 n
# Aus einer Mikrobürette läßt man 10 ml der 1/20 n Schwefelsäure in einen 100 ml Erlenmeyerkolben einlaufen, gibt 5 Tropfen Tashiro-Indikator hinzu und bringt die Vorlage am Destillierapparat an. In den Destillierkolben gibt man 20 ml 25 %ige Natronlauge, verdünnt mit destilliertem Wasser bis zur Hälfte des Volumens und destilliert 7 bis 10 Minuten. Die Vorlage wird nun abgenommen, und, nachdem mit etwas destilliertem Wasser das in Schwefelsäure eintauchende Glasrohr abgespült wurde, titriert man mit 1/20 n Natronlauge von violett auf blaugrün. Der erhaltene Wert ist der Blind-_ wert, der auch gleichzeitig eine Kontrolle des Destillier-Apparates ist und regelmäßig bestimmt wird. Diese Zahl wird der Berechnung des Stickstoffgehaltes zugrunde gelegt.
# […] Methylrot in 300 ml Ethanol und 0,40 g Methylenblau in 400 ml 50 %igem Ethanol.
# 1.4. 25 %ige Natronlauge aus NaOH-Plätzchen.
# 1.5. Das zu prüfende Tensid wird als x-prozentige Lösung mit destilliertem Wasser angesetzt und auf pH 7 eingestellt.
# 2. Aufbereitung des Zein:
# Das verwendete Zein aus Mais (MG 20.000 - 30.000; ~98,5 % Protein) wird im Vakuumtrockenschrank bei maximal 40° C bis zur Gewichtskonstanz getrocknet.
# 3. Durchführung des Tests:
# In eine 50 ml-Enghalsflasche mit Schraubverschluß werden 40 ml Tensidlösung pipettiert und in einem Wasserbad auf 35° C temperiert. […]
row,Molecule,Zein-Zahl [mg Stickstoff in 100 ml]
1,CCCCCCCCCCCCOS(=O)(=O)O [Natriumlaurylsulfat],535
2,Natrium-Fettalkohol-C12-C14-ethersulfat mit 2-Ethylenoxidgruppen im Molekül [Fettalkohol-C12-C14-ethersulfat mit 2 EO],329
3,Neutralisationsprodukt aus N-β-Hydroxyethyl-N-methylglucamin und Fettalkohol-C12-C14-ethermonoschwefelsäureester mit circa 2 Mol Ethylenoxid,223
4,Nonylbenzolsulfonat (Na-Salz),620

# Reference: patent EP0039860A1, “Surfactants, their preparation and their use in cosmetic cleansing compositions, and cosmetic cleansing compositions mild to the skin containing them” (Henkel Kommanditgesellschaft auf Aktien, priority 1980, dated 1981)
